Data from publication PMC1802613 (Nucleic Acids Research, 2006).

Molecular target: M-PMV NC-dUTPase (Mason-Pfizer monkey virus, UniProt P07570)
Experiment: isothermal titration calorimetry
Format: binding

Sequence of M-PMV NC-dUTPase (P07570 526-759): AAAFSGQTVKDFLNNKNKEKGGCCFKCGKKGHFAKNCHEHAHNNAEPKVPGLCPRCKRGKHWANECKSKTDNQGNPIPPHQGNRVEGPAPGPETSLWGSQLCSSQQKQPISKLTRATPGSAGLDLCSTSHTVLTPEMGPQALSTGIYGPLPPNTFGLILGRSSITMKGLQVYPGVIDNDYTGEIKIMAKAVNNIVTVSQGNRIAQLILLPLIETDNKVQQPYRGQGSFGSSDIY

Kd: 1200 ± 20 nM
Structure (SMILES): O=c1ccn([C@H]2C[C@H](O)[C@@H](COP(=O)(O)NP(=O)(O)OP(=O)(O)O)O2)c(=O)[nH]1 [α,β-imino dUTP]
